The NIST ThermoML archive (doi:10.1016/j.jct.2005.02.003)

Assay: molar heat capacity at constant pressure
Conditions: 101.33 kPa

CC(C)COC(C)(C)C [isobutyl tert-butyl ether]
molar heat capacity at constant pressure [J/K/mol]
Conditions	Crystal	Liquid
140.78 K	140.8	–
141.71 K	142	–
142.63 K	142.5	–
143.56 K	143.4	–
144.49 K	143.5	–
145.41 K	144.2	–
146.33 K	144.7	–
147.24 K	145.3	–
149.06 K	146.4	–
149.71 K	–	210
150 K	147.3	–
150.86 K	147.4	–
151.76 K	148.4	–
151.77 K	–	210.7
152.66 K	149	–
153.55 K	149.9	–
153.82 K	–	211.9
155.87 K	–	212.5
156.22 K	153.2	–
157.08 K	153.7	–
157.9 K	–	213.3
157.95 K	155.8	–
159.92 K	–	214
160 K	152.6	–
161.93 K	–	214.7
162.33 K	153.6	214.8
163.93 K	–	215.4
165.92 K	–	216.2
167.9 K	–	216.8
169.88 K	–	217.5
170 K	–	217.7
171.84 K	–	218.3
173.8 K	–	219.3
175.75 K	–	220.1
177.69 K	–	220.3
179.63 K	–	221.1
180 K	–	221.4
181.56 K	–	221.9
183.49 K	–	222.7
185.4 K	–	223.2
187.31 K	–	224.1
189.21 K	–	224.7
190 K	–	225
191.11 K	–	225.4
193 K	–	226
194.89 K	–	226.8
196.77 K	–	227.4
198.65 K	–	227.8
200 K	–	228.5
200.52 K	–	228.5
201.82 K	–	229.6
202.53 K	–	229.1
203.25 K	–	229.2
203.96 K	–	229.6
204.67 K	–	230.4
205.41 K	–	230.1
206.12 K	–	230.8
206.84 K	–	231.4
207.55 K	–	231.1
208.27 K	–	231.1
208.98 K	–	232.1
209.69 K	–	232
210 K	–	232.1
210.4 K	–	232.3
211.12 K	–	232.6
211.83 K	–	233
212.55 K	–	233.1
213.26 K	–	233.6
213.97 K	–	233.7
214.69 K	–	233.6
215.4 K	–	234.1
216.12 K	–	234.1
216.87 K	–	233.8
217.59 K	–	234.2
218.3 K	–	234.6
219.02 K	–	235.9
219.73 K	–	236
220 K	–	235.8
220.45 K	–	236.2
221.17 K	–	236
221.89 K	–	237
222.6 K	–	237
223.33 K	–	236.7
224.04 K	–	237.6
224.76 K	–	237.8
225.48 K	–	237.8
226.2 K	–	238
226.92 K	–	238.6
227.65 K	–	238.6
228.42 K	–	239.6
229.14 K	–	239.3
229.86 K	–	239.6
230 K	–	239.7
230.59 K	–	239.5
231.31 K	–	240.6
232.04 K	–	240.4
233.48 K	–	240.4
234.2 K	–	240.9
235.65 K	–	242
236.37 K	–	242.7
237.1 K	–	242.3
237.82 K	–	242.2
238.55 K	–	243.6
239.27 K	–	243.4
240 K	–	243.7
240.05 K	–	243.3
240.77 K	–	243.8
241.5 K	–	243.9
242.22 K	–	244.6
242.94 K	–	245.2
243.67 K	–	244.9
244.39 K	–	244.9
245.12 K	–	245.9
246.57 K	–	247
247.3 K	–	245.8
248.03 K	–	247
248.76 K	–	247.9
249.49 K	–	247.9
250 K	–	247.9
250.22 K	–	248.3
251.77 K	–	248
252.51 K	–	248.4
253.24 K	–	249
253.98 K	–	249.8
254.72 K	–	250.5
255.46 K	–	250.1
256.2 K	–	251
256.95 K	–	251.3
257.7 K	–	250.7
258.45 K	–	251.2
259.2 K	–	251.6
259.95 K	–	252.5
260 K	–	252.2
260.71 K	–	252.3
261.46 K	–	252.8
262.22 K	–	253.6
263.85 K	–	253.7
264.62 K	–	254.4
265.39 K	–	254.4
266.16 K	–	255.3
266.93 K	–	255.3
267.7 K	–	255.9
268.48 K	–	256.3
269.26 K	–	256.4
270 K	–	256.6
270.82 K	–	256.8
273.2 K	–	258
274 K	–	258.2
274.8 K	–	258.2
275.61 K	–	258.9
276.58 K	–	259.7
277.39 K	–	259.4
279.03 K	–	261.1
279.86 K	–	261.4
280 K	–	260.9
280.69 K	–	261
282.66 K	–	262.3
283.22 K	–	262.3
284.18 K	–	262.8
284.95 K	–	263.7
285.74 K	–	263.4
287.3 K	–	264
287.56 K	–	264.4
288.43 K	–	264.7
288.86 K	–	264.2
290 K	–	265.2
290.42 K	–	264.9
290.43 K	–	265.6
291.99 K	–	265.5
295.17 K	–	266.9
298.15 K	–	268.7
298.38 K	–	268.5
299.98 K	–	269.1
300 K	–	269.6
301.59 K	–	269.8
303.21 K	–	270.6
304.86 K	–	271.6
306.49 K	–	272.2
308.3 K	–	273.1
309.95 K	–	274
310 K	–	274
311.6 K	–	274.4
313.27 K	–	275.7
314.92 K	–	276.5
316.58 K	–	277.2
318.24 K	–	278.5
319.91 K	–	278.9
320 K	–	278.7
321.57 K	–	279.3
323.26 K	–	280.8
324.94 K	–	281.6
326.61 K	–	282.4
328.29 K	–	283.1
329.99 K	–	283.8
330 K	–	283.7
331.66 K	–	284.7
333.33 K	–	285.5
335.19 K	–	285.9
336.85 K	–	286.8
338.51 K	–	287.9
340 K	–	289
340.16 K	–	289
341.81 K	–	290
343.47 K	–	291.2
345.13 K	–	291.6
346.78 K	–	292.3
348.44 K	–	293
350 K	–	294.5
350.08 K	–	294.6
351.76 K	–	295.7
353.42 K	–	296.9
